Source: the supplement of paper PMC11451515

Columns and labels:
[1] = tested on: NOMO1; test: AUC of viability dose-response curve (% viability x log10 dose units); higher = less sensitive; details: 48 h
Outline: (§1)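 Seeding of medium-adapted leukemia cells was at 500 or 1000 cells/well in 1536-well plates, followed by 48 h at 37°C with library compounds in DMSO at 11 threefold doses from 47 μM to 0.79 nM. CellTiter-Glo One luminescence was normalised per plate to DMSO and cell-free wells and fitted as a four-parameter log-logistic function of log10 dose. Area under the curve was integrated by trapezoidal rule, with curves exceeding full viability scaled and curves failing quality control removed.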

[2] = tested on: P12-Ichikawa; test: as above; details: 48 h
Outline: as §1

[3] = tested on: SEM cells; test: as above; details: 48 h
Outline: as §1

[4] = tested on: P12-Ichikawa; test: cell viability relative to DMSO control; higher = less cytotoxic; details: HPLM + 10% dialyzed FBS, 48 h
Outline: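 Viability values are per-plate percentages of DMSO wells, with background from cell-free wells. Library compounds in DMSO were pin-dosed, in an 11-point threefold series from 47 μM to 0.79 nM, onto NOMO1 or SEM (500 cells/well) or P12-Ichikawa (1000 cells/well) leukemia cells in 1536-well plates (5 μl). Those cells had been adapted for at least four passages in each medium, and CellTiter-Glo One luminescence was read after 48 h at 37°C.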

[5] = RPMI 5 mM glucose + 10% dialyzed FBS

SMILES	AUC of viability dose-response curve ([1]; HPLM + 10% dialyzed FBS)	AUC of viability dose-response curve ([1]; RPMI 5 mM glucose + 10% FBS)	AUC of viability dose-response curve [1, 5]	AUC of viability dose-response curve ([2]; HPLM + 10% dialyzed FBS)	AUC of viability dose-response curve ([2]; RPMI 5 mM glucose + 10% FBS)	AUC of viability dose-response curve [2, 5]	AUC of viability dose-response curve ([3]; HPLM + 10% dialyzed FBS)	AUC of viability dose-response curve ([3]; RPMI 5 mM glucose + 10% FBS)	AUC of viability dose-response curve [3, 5]	cell viability ([4]; 0.000781 µM) [%]	cell viability ([4]; 0.00234 µM) [%]	cell viability ([4]; 0.00702 µM) [%]	cell viability ([4]; 0.0211 µM) [%]	cell viability ([4]; 0.0632 µM) [%]	cell viability ([4]; 0.19 µM) [%]	cell viability ([4]; 0.569 µM) [%]	cell viability ([4]; 1.71 µM) [%]	cell viability ([4]; 5.12 µM) [%]	cell viability ([4]; 15.4 µM) [%]	cell viability ([4]; 46.1 µM) [%]
NC1=C(Cl)C(=CC=N1)OC2=C(F)C=C(NC(=O)\C3=C\N\C=C(C3=O)\C4=CC=C(F)C=C4)C=C2	441	452	453	451	448	447	312	287	247	–	–	–	–	–	–	–	–	–	–	–
CC(C)OC(=O)C(C(=O)OC(C)C)=C1S\C=C/S1	425	435	437	443	433	424	458	446	438	138	124	122	133	113	124	123	124	126	118	101
